# Molecular target: Protein farnesyltransferase (Homo sapiens, UniProt P49354+P49356)
# Assay: FPT inhibitory activity was determined by the ability to inhibit the transfer of [3H]farnesyl from farnesyl pyrophosphate to H-ras-CLVS
# Format: protein-complex assay
row,Compound,IC50 [µM]
1,N#CN=C(Nc1ccc2c(c1)COCO2)N1CCC(=C2c3ccc(Cl)cc3CCc3cc(Br)cnc32)CC1,0.015
2,N#CN/C(=N/CCCn1ccnc1)N1CCC(=C2c3ccc(Cl)cc3CCc3cc(Br)cnc32)CC1,0.035
3,CN(C)c1ccc(CNC(=NC#N)N2CCC(=C3c4ccc(Cl)cc4CCc4cc(Br)cnc43)CC2)cc1,0.1
4,CN(C)CCCC/N=C(/NC#N)N1CCC(=C2c3ccc(Cl)cc3CCc3cc(Br)cnc32)CC1,0.074
5,N#CN/C(=N/Cc1ccccn1)N1CCC(=C2c3ccc(Cl)cc3CCc3cc(Br)cnc32)CC1,0.029
6,CC(C)c1ccc(N/C(=N\C#N)N2CCC(=C3c4ccc(Cl)cc4CCc4cc(Br)cnc43)CC2)cc1,0.15
7,N#CN=C(Nc1ccc(F)cc1)N1CCC(=C2c3ccc(Cl)cc3CCc3cc(Br)cnc32)CC1,0.038
8,COc1ccc(C/N=C(/NC#N)N2CCC(=C3c4ccc(Cl)cc4CCc4cc(Br)cnc43)CC2)cc1,0.31
9,O=C(Cc1ccc[n+]([O-])c1)N1CCC([C@H]2c3ncc(Br)cc3CCc3cc(Cl)cc(Br)c32)CC1,0.0082
10,N#CN=C(N)N1CCC(=C2c3ccc(Cl)cc3CCc3cc(Br)cnc32)CC1,2.6
11,CC(C)NC(=NC#N)N1CCC(=C2c3ccc(Cl)cc3CCc3cc(Br)cnc32)CC1,0.124
12,CCCCNC(=NC#N)N1CCC(=C2c3ccc(Cl)cc3CCc3cc(Br)cnc32)CC1,0.105
13,N#C/N=C(\Nc1ccc(OC(F)(F)F)cc1)N1CCC(=C2c3ccc(Cl)cc3CCc3cc(Br)cnc32)CC1,0.32
14,N#CN=C(NCc1ccccc1)N1CCC(=C2c3ccc(Cl)cc3CCc3cc(Br)cnc32)CC1,0.23
15,N#CN/C(=N/CCO)N1CCC(=C2c3ccc(Cl)cc3CCc3cc(Br)cnc32)CC1,0.17
16,N#CN=C(NCCc1cnc[nH]1)N1CCC(=C2c3ccc(Cl)cc3CCc3cc(Br)cnc32)CC1,0.058
17,N#CN/C(=N/CCOCCO)N1CCC(=C2c3ccc(Cl)cc3CCc3cc(Br)cnc32)CC1,0.084
18,N#CN=C(NCc1cccnc1)N1CCC(=C2c3ccc(Cl)cc3CCc3cc(Br)cnc32)CC1,0.015

# Results, then the compound that gave them:
row,IC50 [µM],Compound
1,0.199,N#CN=C(NCC1CCCCC1)N1CCC(=C2c3ccc(Cl)cc3CCc3cc(Br)cnc32)CC1
2,0.116,N#CN=C(Nc1ccccc1)N1CCC(=C2c3ccc(Cl)cc3CCc3cc(Br)cnc32)CC1
3,0.042,CCOC(=O)N1CCC(NC(=NC#N)N2CCC(=C3c4ccc(Cl)cc4CCc4cc(Br)cnc43)CC2)CC1
4,0.006,N#CN/C(=N/Cc1cc[n+]([O-])cc1)N1CCC(=C2c3ccc(Cl)cc3CCc3cc(Br)cnc32)CC1
5,0.082,CS(=O)(=O)c1ccc(N/C(=N\C#N)N2CCC(=C3c4ccc(Cl)cc4CCc4cc(Br)cnc43)CC2)cc1
6,0.086,N#CN/C(=N/c1ccccc1)N1CCC(=C2c3ccc(Cl)cc3CCc3cccnc32)CC1
7,< 0.11,N#CN/C(=N/c1ccncc1)N1CCC(=C2c3ccc(Cl)cc3CCc3cc(Br)cnc32)CC1
8,0.012,N#CN=C(NCc1ccc[n+]([O-])c1)N1CCC(=C2c3ccc(Cl)cc3CCc3cc(Br)cnc32)CC1
9,15.8,O=C(CN1CCC(=C2c3ccc(Cl)cc3CCc3cccnc32)CC1)c1ccccc1
10,0.02,N#CN/C(=N/C1CCCCC1)N1CCC(=C2c3ccc(Cl)cc3CCc3cc(Br)cnc32)CC1
11,0.038,N#CN=C(Nc1ccc2c(c1)OCO2)N1CCC(=C2c3ccc(Cl)cc3CCc3cc(Br)cnc32)CC1
12,0.032,N#CN=C(Nc1ccc(C#N)cc1)N1CCC(=C2c3ccc(Cl)cc3CCc3cc(Br)cnc32)CC1
13,0.24,N#CN/C(=N/Cc1ccc2c(c1)OCO2)N1CCC(=C2c3ccc(Cl)cc3CCc3cc(Br)cnc32)CC1
14,0.006,N#CN/C(=N/CC1CCN(C(N)=O)CC1)N1CCC(=C2c3ccc(Cl)cc3CCc3cc(Br)cnc32)CC1
15,0.018,N#CN=C(NCC1CCNCC1)N1CCC(=C2c3ccc(Cl)cc3CCc3cc(Br)cnc32)CC1
16,0.155,N#CN=C(NC1CC1)N1CCC(=C2c3ccc(Cl)cc3CCc3cc(Br)cnc32)CC1
17,0.0017,N#CN/C(=N/Cc1ccc[n+]([O-])c1)N1CCC([C@H]2c3ncc(Br)cc3CCc3cc(Cl)cc(Br)c32)CC1
18,0.062,N#C/N=C(\Nc1ccc([N+](=O)[O-])cc1)N1CCC(=C2c3ccc(Cl)cc3CCc3cc(Br)cnc32)CC1
19,0.03,N#CN/C(=N/CCc1ccncc1)N1CCC(=C2c3ccc(Cl)cc3CCc3cc(Br)cnc32)CC1
